Patent US7662988B2, “Ester compound and its use” (Sumitomo Chemical Company, Limited, priority 2006, dated 2010)

Key:
[1] = tested on: Adult houseflies; assay: Housefly knock-down test, 0.025% oil solution spray in cubic chamber; assay type: in vivo; conditions: 0.7 ml of 0.025% oil solution sprayed in 70 cm cubic chamber, 2 minutes after spraying
Description: A solution of 0.025 part of the present compound (A) in 10 parts of dichloromethane was mixed with 89.975 parts of deodorized kerosene to obtain a 0.025% oil solution.
(§1) Adult houseflies (5 males and 5 females) were left in a cubic chamber (70 cm at each side). Into the chamber, 0.7 ml of 0.025% oil solution of the present compound (A) prepared above was sprayed with a spray gun at a pressure of 8.8×10^4 Pa from a small window on the side of the chamber. Two minutes after spraying, the number of the knocked-down insects was counted (repeated twice).
The same test was carried out except that 4-propargyl-2,3,5,6-tetrafluorobenzyl (1R)-trans-3-(2-methyl-1-propenyl)-2,2-dimethylcyclopropanecarboxylate represented by the formula:
[drawing 7] (The compound described as compound 2 in TABLE 1 of EP 0196156 A1; hereinafter, referred to as the comparative compound 1) was used instead of the present compound (A).
Knock-down ratios, i.e., ratios of the number of knocked-down insects 2 minutes after the spraying to the number of tested insects, are shown in Table 1.

[2] = tested on: Adult houseflies; assay: Housefly KT90 test, 0.00625% oil solution spray in cubic chamber; assay type: in vivo; conditions: 0.7 ml of 0.00625% oil solution sprayed in 70 cm cubic chamber, counted up to 10 minutes after spraying
Description: A solution of 0.00625 part of the present compound (A) in 10 parts of dichloromethane was mixed with 89.99375 parts of deodorized kerosene to obtain a 0.00625% oil solution.
as §1, with “0.00625%” for “0.025%”, “sprayed into the chamber” for “sprayed”, “Then, up to 10” for “Two”, “counted with time” for “counted”, “twice). The time required for knocking down 90% of the tested insects (KT90) was calculated from the results.” for “twice).”
The same tests were carried out except for using the comparative compound 1 and 4-methoxymethyl-2,3,5,6-tetrafluorobenzyl (1R)-trans-3-(2-cyano-1-propenyl)-2,2-dimethylcyclopropanecarboxylate represented by the formula:
[drawing 8] (The compound described in JP 2004-2363 A; hereinafter, referred to as the comparative compound 2.).

Structure (SMILES) | Knock-down ratio (%) [1] [%] | KT90 (minutes), time required for knocking down 90% of the tested insects [2]
C#CCc1c(F)c(F)c(COC(=O)[C@@H]2[C@@H](C=C(C)C)C2(C)C)c(F)c1F [Comparative compound 1, 4-propargyl-2,3,5,6-tetrafluorobenzyl (1R)-trans-3-(2-methyl-1-propenyl)-2,2-dimethylcyclopropanecarboxylate] | 0 | Not less than 10 minutes
COCc1c(F)c(F)c(COC(=O)[C@@H]2[C@@H](C=C(C)C#N)C2(C)C)c(F)c1F [Comparative compound 2, 4-methoxymethyl-2,3,5,6-tetrafluorobenzyl (1R)-trans-3-(2-cyano-1-propenyl)-2,2-dimethylcyclopropanecarboxylate] | – | 4.3 min
C#CCc1c(F)c(F)c(COC(=O)[C@@H]2[C@@H](C=C(C)C#N)C2(C)C)c(F)c1F [Present compound (A), 4-propargyl-2,3,5,6-tetrafluorobenzyl (1R)-trans-3-(2-cyano-1-propenyl)-2,2-dimethylcyclopropanecarboxylate] | 100 | 2.0 min
